Series [1] concerns human glycine N-methyltransferase promoter. Briefly: GNMT promoter-driven luciferase reporter assay in H7GPL cells. The series is classed as cell-based. As to conditions: H7GPL luciferase. The method, then: Please refer to FIG. 1, which illustrates the configuration of pLV-GNMTpLuc plasmid. HEK293T cells were cotransfected with a packaging plasmid-pCMV-ΔR8.91, a VSV-G envelope expressing plasmid-pMD.G and pLV-GNMTpLuc using TurboFect™ Reagent (Fermentas, Hanover, Md.). One resultant colony was picked, amplified and denominated as H7GPL (HuH-7-GNMT promoter-Luciferase). The relative luciferase activity (RLA) was calculated as “activity of luciferase/intensity of alamarBlue fluorescence”. The fold changes in GNMT promoter induction was calculated as “RLA of drug/RLA of solvent control”. Compounds with the ability to activate human glycine N-methyltransferase promoter in H7GPL could serve as a citeria for screening drugs.
Please refer to FIG. 2, which illustrates the luciferase activity in a screening platform. Previously, 26 FDA approved drugs were identified that can reverse the gene expression signature of HCC. We obtained 26 drugs. H7GPL cells were seeded in 96-well plates for 18 hours and then were treated with these 26 drugs and solvent control for an extra 24 hours.
In the initial screening, when (individual luciferase activity−average luciferase activity of all hits)/standardized Z scores of all samples is greater than 1.5, it means the compound has the capability of enhancing the GNMT reporter activity.
Huh7 cells were infected with this virus and selected with puromycin-containing medium. One resultant colony was picked, amplified and denominated as H7GPL (Huh7 GNMT promoter-luciferase). The cell lysate of H7GPL was used for luciferase activity measurement using the Luciferase Assay System (Promega).
For primary screening, H7GPL cells seeded in 96-well plates were treated for 24 h with individual drugs at a concentration of 2 mg/mL for crude extracts and 0.2 mg/mL for pure compounds and then were lysed for the luciferase activity assay using the Luciferase Assay System (Promega, Madison, Wis., USA).
Reporter activity for each well was transformed to the Z score by using data from all assay plates.
Then, hits of primary screening were sorted by Z score ≥1.5 and used for secondary screening.
And then placed in the above-described culture plate H7GPL cell replication, and after the disposal of seized goods in those 20 hours, the company added AbD serotec Reagent (Oxford, UK), further cultured for 4 hours.
The cytotoxicity was measured according to the manufacturer's recommendation for assessing the reporter gene.
Drugs that induced GNMT promoter activity ≥1.5-fold were considered as hits of the secondary screen with the capability of enhancing the activity of GNMT.
For orientation: In a reporter assay the amount or activity of a reporter protein is the signal.

For a further series, the system named is GNMT. Briefly: GNMT mRNA and protein expression in Huh7 cells (qPCR, immunoblot). The series is classed as cell-based, human. The procedure:
RNA was prepared by using Tri Reagent (Sigma-Aldrich, St Louis, Mo., USA) and was reverse transcribed into cDNA using a Super Script II Reverse Transcriptase Kit (Invitrogen Inc., Carlsbad, Calif., USA).
PCR was performed on an ABI StepOne Plus System (Applied Biosystems, Foster City, Calif., USA) using the LightCycler® First Start DNA Master SYBR Green I reagent (Roche Diagnostics, Basel, Switzerland). The mRNA level was normalized using the TATA-box binding protein (TBP) mRNA level as the standard.
The following primers were used: GNMT forward, 5′-ACTGGATGACT CTGGACAA-3′ (SEQ ID NO. 3) and reverse, 5′-ACTGAGGATGTGGTCGT-3′(SEQ ID NO. 4); TBP forward, 5′-[…]-3′ (SEQ ID NO. 5) and reverse, 5′-[…]-3′(SEQ ID NO. 6); c-Myc forward, […](SEQ ID NO. 7) and reverse, […](SEQ ID NO. 8).
Cells or xenograft tumors were harvested with RIPA lysis buffer (50 mM Tris (pH 7.5), 150 mM NaCl, 1% Triton X-100, 0.1% sodium dodecyl sulfate (SDS), 0.5% sodium deoxycholate, supplemented with protease and phosphatase inhibitors (1 mM Phenylmethanesulfonyl Fluoride (PMSF), […], […] Tosyllysine Chloromethyl Ketone (TLCK), […] Tosyl phenylalanyl chloromethyl ketone (TPCK), […] aprotinin, 1 mM sodium fluoride (NaF), 5 mM sodium pyrophosphate (NaPPi) and 10 mM sodium orthovanadate (Na3VO4).
Protein lysates were quantified and separated on SDS-PAGE gel, and immunoblotting was carried out.
The following antibodies were used: anti-GNMT (14-1, YMAC Bio Tech, Taiwan), anti-caspase-3 (9H19L2, Thermo Scientific) and anti-actin (AC-15, Sigma-Aldrich).
(In general: Quantitative PCR measures a nucleic acid by following its amplification.)

The test system of the next series is Huh7 cells. Briefly: Apoptosis in Huh7 cells (Annexin V flow cytometry, cleaved caspase 3 immunoblot). It is filed as cell-based, human. The procedure: Please refer to FIG. 22, which illustrates sub-G1 of cells in population. And flow cytometry analysis is done after 24 hours of PGG (0.1 mg/mL) treatment as illustrated in FIG. 22.
Please refer to FIG. 23, which illustrates fluorescence intensity in Annexin-V-positive cells among Huh7 cells.
In summary, administration of PGG to Huh7 cells can induce apoptosis.
Cells were harvested and fixed with cold 75% ethanol overnight and stained with propidium iodide (10 ug/mL) and RNase A (1 mg/mL) at 37 □ for 30 min. The cells were then analyzed by an Accuri C6 Flow cytometer (BD Biosciences, San Jose, Calif., USA). Cells were stained for Annexin V—APC Apoptosis Detection Kit according to the manufacturer's protocol (eBioscience, San Diego, Calif., USA).
A general note: Flow cytometry measures light scatter and fluorescence of single cells or particles in a stream.

The test system of series [2] is Huh7 cells (shLacZ, shGNMT, shMyc, c-Myc overexpression). Briefly: PGG cytotoxicity in Huh7 cells with GNMT or c-Myc knock-out or c-Myc overexpression. It is filed as cell-based, human. The method, then: As to the mechanism for how to suppress the growth of liver cancer cells by PGG, it was deduced that by virtue of induced GNMT expression by PGG it could interfere liver cancer cells. And it can be expected to have the claimed therapeutic effect of PGG by knocking out GNMT. With transformed Huh7 cells, shRNAs which have stable expressions of GNMT are evaluated.
Please refer to FIG. 40, which illustrates PGG affects the viability in different cell lines, wherein the numeral 1 denotes shLacZ, the numeral 2 denotes shGNMT-1, and the numeral 3 denotes shGNMT-2.
Please refer to FIG. 41, which illustrates the viability in Huh7 cells, wherein the numeral 1 denotes vehicle, the numeral 2 denotes c-Myc, the numeral 3 denotes solvent, and the numeral 4 denotes PGG.
Please refer to FIG. 44, which illustrates the viability in Huh7 cells, wherein the numeral 1 denotes shLacZ, and the numeral 2 denotes shMyc.
Stablized cells comprises Huh7-GFP, Huh7-GNMT, Huh7-shGNMT, Huh7-shLacZ and Huh7-shMyc, which are established via the lentivirus system and cultured in Dulbecco's Modified Eagle's Medium (DMEM) (Gibco BRL, Grand Island, N.Y., USA) with 1 μg/ml puromycin.

Take `O=C(OC[C@H]1O[C@@H](OC(=O)c2cc(O)c(O)c(O)c2)[C@H](OC(=O)c2cc(O)c(O)c(O)c2)[C@@H](OC(=O)c2cc(O)c(O)c(O)c2)[C@@H]1OC(=O)c1cc(O)c(O)c(O)c1)c1cc(O)c(O)c(O)c1` [PGG, 1,2,3,4,6-penta-O-galloyl-β-D-glucopyranoside]: in series [1], the “GNMT promoter activity (in words)” value is “can induce GNMT promoter activity”. Moreover, in the series with GNMT (0.1 mg/ml, Huh7 cells), the “GNMT mRNA expression” value is recorded as “induced GNMT mRNA expression” and the GNMT protein expression result is “induced GNMT protein expression”. Further, in the series with GNMT (after administration, qPCR and immunoblot), the “time of optimal induced effect on GNMT” value turned out to be 48 h. Moreover, in the series with Huh7 cells, the “apoptosis (Annexin V staining)” value is listed as “significantly induce apoptosis” and the “level of cleaved caspase 3 (immunoblot)” value is on record as “increased the level of cleaved caspase 3 in a dose-dependent manner”. In addition, the “cytotoxicity with ectopically overexpressed c-Myc” value in series [2] (0.1 mg/mL, FIG. 41) was “there is still cytotoxicity”. Moreover, the “cytotoxicity when GNMT is knocked out (shGNMT-1, shGNMT-2 vs shLacZ)” value in series [2] (FIG. 40) was “no obvious improvement for the cytotoxicity caused by PGG”. Besides, the “cell viability of Huh7-shMyc cells compared with Huh7-shLacZ cells” value in series [2] (FIG. 44) is given as “only slightly decrease cell viability”.

The values are drawn from patent US11000535B2, “Anticancer composition and use thereof” (KAOHSIUNG MEDICAL UNIVERSITY, priority 2015, dated 2021).
